According to patent US8192962B2, “Processes for detecting toxic substances” (Daikin Industries, Ltd., priority 2001, dated 2012):

Test system: Energy system protein genes
Assay: DNA chip mRNA expression in yeast, energy system protein genes (Table 4)
Assay type: cell-based, Saccharomyces cerevisiae S288C
Protocol: Yeast (Saccharomyces cerevisiae S288C (α SUC2mal mel gap2 CUP1)) were incubated at 25° C. on YPD medium (yeast extract 1%, polypepton 2%, glucose 2%). One of toxic chemical substances was added to the cells at logarithmic growth phase, and the cells were further incubated for two hours. Cells were cultured without any chemical substance in the same condition, and were used as control. Concentrations of the chemical substances were defined to inhibit the growth of the yeast but not lead to death.
After completion of the incubation, the culture was centrifuged to collect the cells. To the cells, sodium acetate buffer (50 mM sodium acetate, 10 mM EDTA, 1% SDS) was added, and the mixture was shaken at 65° C. for five minutes, followed by returning to room temperature, and obtaining the supernatant, of which the procedures were repeated two times. To the supernatant, ½ amount of a solution of phenol/chloroform was added, and the mixture was centrifuged to give a supernatant, which was added with an equal amount of chloroform, and the mixture was centrifuged to give a supernatant. To the supernatant, an equal amount of isopropanol containing 0.3 M sodium acetate was added, and the mixture was allowed to stand at room temperature for 30 minutes, after which the mixture was centrifuged to give a sediment of the whole RNAs. Seventy % ethanol was added to the sediment, and the mixture was again centrifuged to give a sediment, which was then dried and dissolved in water. mRNA was isolated from the whole RNAs as followings. In view of the fact that a poly A chain is attached to the 3′ terminus of mRNA, a polynucleotide having a poly T structure which was immobilized on the surface of latex beads was used to trap the mRNA, and then the mRNA was washed and eluted with spine column (Oligotex-dT30<Super>mRNA Purification Kit, Takara). Reverse transcription of the mRNA was conducted with a reverse transcriptase (Super Script II Reverse Transcriptase; catalogue No. 18064-014, GibcoBRL) using fluorescence-labeled nucleotides to give cDNAs that were introduced with Cy3-dUTP or Cy5-dUTP during the reverse transcription.
The labeled cDNAs were dissolved in TE buffer (10mM Tris-HCl/1 mM EDTA, pH8.0), and the solution was dropped on the DNA chip containing the whole genes of yeast (DNA Chip Research Inc. Japan) so that the cDNAs were hybridized on the DNA chip at 65° C. for over 12 hours. The fluoresces intensity of the DNA chip was read with a scanner, and the ratio relative to the fluorescence intensity resulting from the absence of chemical substance was estimated as the following, which is shown in Tables 1 to 9: […]

Cl[C@H]1[C@H](Cl)[C@@H](Cl)[C@@H](Cl)[C@H](Cl)[C@H]1Cl [(7), γ-hexachlorocyclohexane]
The level of expressed mRNA in the presence of chemical substance/The level of expressed mRNA in the absence of chemical substance (yeast gene YJR009C): 1.6 | The level of expressed mRNA in the presence of chemical substance/The level of expressed mRNA in the absence of chemical substance (yeast gene YJR048W): 0.3 | The level of expressed mRNA in the presence of chemical substance/The level of expressed mRNA in the absence of chemical substance (yeast gene YJR121W, cells incubated two hours with the chemical substance): 1.0 | The level of expressed mRNA in the presence of chemical substance/The level of expressed mRNA in the absence of chemical substance (yeast gene YJR155W): 1.7 | The level of expressed mRNA in the presence of chemical substance/The level of expressed mRNA in the absence of chemical substance (yeast gene YKL016C, cells incubated two hours with the chemical substance): 1.5 | The level of expressed mRNA in the presence of chemical substance/The level of expressed mRNA in the absence of chemical substance (yeast gene YKL060C, cells incubated two hours with the chemical substance): 1.2 | The level of expressed mRNA in the presence of chemical substance/The level of expressed mRNA in the absence of chemical substance (yeast gene YKL141W, cells incubated two hours with the chemical substance): 0.5 | The level of expressed mRNA in the presence of chemical substance/The level of expressed mRNA in the absence of chemical substance (yeast gene YKL148C, cells incubated two hours with the chemical substance): 0.6 | The level of expressed mRNA in the presence of chemical substance/The level of expressed mRNA in the absence of chemical substance (yeast gene YKR009C, cells incubated two hours with the chemical substance): 1.0 | The level of expressed mRNA in the presence of chemical substance/The level of expressed mRNA in the absence of chemical substance (yeast gene YKR058W, cells incubated two hours with the chemical substance, 25° C., YPD medium): 1.4 | The level of expressed mRNA in the presence of chemical substance/The level of expressed mRNA in the absence of chemical substance (yeast gene YKR097W): 3.7 | The level of expressed mRNA in the presence of chemical substance/The level of expressed mRNA in the absence of chemical substance (yeast gene YLL041C, cells incubated two hours with the chemical substance): 0.3 | The level of expressed mRNA in the presence of chemical substance/The level of expressed mRNA in the absence of chemical substance (yeast gene YLR038C, cells incubated two hours with the chemical substance): 1.0 | The level of expressed mRNA in the presence of chemical substance/The level of expressed mRNA in the absence of chemical substance (yeast gene YLR044C, cells incubated two hours with the chemical substance): 1.3 | The level of expressed mRNA in the presence of chemical substance/The level of expressed mRNA in the absence of chemical substance (yeast gene YLR134W, cells incubated two hours with the chemical substance): 1.1 | The level of expressed mRNA in the presence of chemical substance/The level of expressed mRNA in the absence of chemical substance (yeast gene YLR258W, cells incubated two hours with the chemical substance): 1.8 | The level of expressed mRNA in the presence of chemical substance/The level of expressed mRNA in the absence of chemical substance (yeast gene YLR284C, cells incubated two hours with the chemical substance): 0.8 | The level of expressed mRNA in the presence of chemical substance/The level of expressed mRNA in the absence of chemical substance (yeast gene YLR295C, cells incubated two hours with the chemical substance, 25° C., YPD medium): 1.1 | The level of expressed mRNA in the presence of chemical substance/The level of expressed mRNA in the absence of chemical substance (yeast gene YLR304C, cells incubated two hours with the chemical substance): 0.6 | The level of expressed mRNA in the presence of chemical substance/The level of expressed mRNA in the absence of chemical substance (yeast gene YLR345W): 1.2 | The level of expressed mRNA in the presence of chemical substance/The level of expressed mRNA in the absence of chemical substance (yeast gene YLR354C, cells incubated two hours with the chemical substance): 1.1 | The level of expressed mRNA in the presence of chemical substance/The level of expressed mRNA in the absence of chemical substance (yeast gene YLR377C, cells incubated two hours with the chemical substance): 0.9 | The level of expressed mRNA in the presence of chemical substance/The level of expressed mRNA in the absence of chemical substance (yeast gene YML087C): 1.1 | The level of expressed mRNA in the presence of chemical substance/The level of expressed mRNA in the absence of chemical substance (yeast gene YML120C, cells incubated two hours with the chemical substance): 0.8 | The level of expressed mRNA in the presence of chemical substance/The level of expressed mRNA in the absence of chemical substance (yeast gene YML129C, cells incubated two hours with the chemical substance): 1.8 | The level of expressed mRNA in the presence of chemical substance/The level of expressed mRNA in the absence of chemical substance (yeast gene YMR073C, cells incubated two hours with the chemical substance): 1.0 | The level of expressed mRNA in the presence of chemical substance/The level of expressed mRNA in the absence of chemical substance (yeast gene YMR118C): 1.0 | The level of expressed mRNA in the presence of chemical substance/The level of expressed mRNA in the absence of chemical substance (yeast gene YMR205C, cells incubated two hours with the chemical substance): 0.9 | The level of expressed mRNA in the presence of chemical substance/The level of expressed mRNA in the absence of chemical substance (yeast gene YMR261C, cells incubated two hours with the chemical substance): 1.3 | The level of expressed mRNA in the presence of chemical substance/The level of expressed mRNA in the absence of chemical substance (yeast gene YMR267W, cells incubated two hours with the chemical substance, 25° C., YPD medium): 1.2 | The level of expressed mRNA in the presence of chemical substance/The level of expressed mRNA in the absence of chemical substance (yeast gene YMR323W, cells incubated two hours with the chemical substance): 1.1 | The level of expressed mRNA in the presence of chemical substance/The level of expressed mRNA in the absence of chemical substance (yeast gene YNL071W): 1.4 | The level of expressed mRNA in the presence of chemical substance/The level of expressed mRNA in the absence of chemical substance (yeast gene YNL202W, cells incubated two hours with the chemical substance): 0.9 | The level of expressed mRNA in the presence of chemical substance/The level of expressed mRNA in the absence of chemical substance (yeast gene YNL241C): 3.2 | The level of expressed mRNA in the presence of chemical substance/The level of expressed mRNA in the absence of chemical substance (yeast gene YNL331C): 1.9 | The level of expressed mRNA in the presence of chemical substance/The level of expressed mRNA in the absence of chemical substance (yeast gene YOL086C, cells incubated two hours with the chemical substance): 1.9 | The level of expressed mRNA in the presence of chemical substance/The level of expressed mRNA in the absence of chemical substance (yeast gene YOL165C): 1.4 | The level of expressed mRNA in the presence of chemical substance/The level of expressed mRNA in the absence of chemical substance (yeast gene YOR142W, cells incubated two hours with the chemical substance): 1.0 | The level of expressed mRNA in the presence of chemical substance/The level of expressed mRNA in the absence of chemical substance (yeast gene YOR178C, cells incubated two hours with the chemical substance): 0.9 | The level of expressed mRNA in the presence of chemical substance/The level of expressed mRNA in the absence of chemical substance (yeast gene YOR388C, cells incubated two hours with the chemical substance): 1.0 | The level of expressed mRNA in the presence of chemical substance/The level of expressed mRNA in the absence of chemical substance (yeast gene YPL031C, cells incubated two hours with the chemical substance): 1.6 | The level of expressed mRNA in the presence of chemical substance/The level of expressed mRNA in the absence of chemical substance (yeast gene YPL061W, cells incubated two hours with the chemical substance): 0.5 | The level of expressed mRNA in the presence of chemical substance/The level of expressed mRNA in the absence of chemical substance (yeast gene YPL088W): 3.7 | The level of expressed mRNA in the presence of chemical substance/The level of expressed mRNA in the absence of chemical substance (yeast gene YPL171C): 1.7 | The level of expressed mRNA in the presence of chemical substance/The level of expressed mRNA in the absence of chemical substance (yeast gene YPL240C): 1.4 | The level of expressed mRNA in the presence of chemical substance/The level of expressed mRNA in the absence of chemical substance (yeast gene YPL262W, cells incubated two hours with the chemical substance): 1.3 | The level of expressed mRNA in the presence of chemical substance/The level of expressed mRNA in the absence of chemical substance (yeast gene YPL275W, cells incubated two hours with the chemical substance): 1.1 | The level of expressed mRNA in the presence of chemical substance/The level of expressed mRNA in the absence of chemical substance (yeast gene YPL276W, cells incubated two hours with the chemical substance): 1.2 | The level of expressed mRNA in the presence of chemical substance/The level of expressed mRNA in the absence of chemical substance (yeast gene YPR048W, cells incubated two hours with the chemical substance): 0.9 | The level of expressed mRNA in the presence of chemical substance/The level of expressed mRNA in the absence of chemical substance (yeast gene YPR184W, cells incubated two hours with the chemical substance): 1.3
